Test results published in ChEMBL document CHEMBL4842348 (J Med Chem, 2021).

How the values were obtained:
[1] = Tmax in Beagle dog at 2 mg/kg, po; format: ADME, organism-based, Canis lupus familiaris; conditions: in vivo
[2] = Half life in lean wild type mouse adipose tissue at 10 mg/kg, po qd treated for 40 days; format: ADME, organism-based; conditions: time 40 day
[3] = AUC (0 to infinitive) in Beagle dog at 2 mg/kg, po; format: ADME, organism-based, Canis lupus familiaris; design: route oral, time infinity, dose 2 mg/kg; conditions: in vivo
[4] = Cmax in Beagle dog at 2 mg/kg, po; format: ADME, organism-based, Canis lupus familiaris; design: route oral, dose 2 mg/kg; conditions: in vivo
[5] = Half life in DIO wild type mouse adipose tissue at 10 mg/kg, po qd treated for 40 days; format: ADME, organism-based; conditions: time 40 day
[6] = Half life in lean NFR-transgenic mouse adipose tissue at 10 mg/kg, po qd treated for 40 days; format: ADME, organism-based; conditions: time 40 day
[7] = Oral bioavailability in WH rat at 2 mg/kg; format: ADME, organism-based; conditions: in vivo
[8] = Drug recovery in bile duct cannulated single iv dosed WH rat assessed as recovered parent compound in feces relative to total recovery; format: ADME, organism-based; conditions: in vivo
[9] = Drug recovery in bile duct cannulated single po dosed rhesus monkey assessed as recovered parent compound in plasma measured at 2 hrs relative to total recovery; format: ADME, organism-based, Macaca mulatta; conditions: in vivo
[10] = Terminal half life in rhesus monkey at 0.5 mg/kg, iv; format: ADME, organism-based, Macaca mulatta; conditions: in vivo, read-out: beta t1/2 (converted)
[11] = Dose normalized AUC in CD1 mouse at 1 mg/kg, iv and 2 mg/kg, po; format: ADME, organism-based; conditions: in vivo
[12] = Oral bioavailability in rhesus monkey at 2 mg/kg; format: ADME, organism-based, Macaca mulatta; conditions: in vivo
[13] = Normalized AUC (0 to 72 hrs) in fasted dog at 1 mg/kg, po in 0.5% methocel; format: ADME, organism-based, Canis lupus familiaris; conditions: in vivo
[14] = Oral bioavailability in high fat diet fed dog at 1 mg/kg in Imwitor/Tween; format: ADME, organism-based, Canis lupus familiaris; conditions: in vivo
[15] = MRT in CD1 mouse at 1 mg/kg, iv and 2 mg/kg, po; format: ADME, organism-based; conditions: in vivo
[16] = Drug recovery in bile duct cannulated single iv dosed WH rat assessed as recovered parent compound in plasma measure at 2 hrs relative to total recovery; format: ADME, organism-based; conditions: in vivo
[17] = Terminal half life in Beagle dog at 0.5 mg/kg, iv; format: ADME, organism-based, Canis lupus familiaris; conditions: in vivo, read-out: beta t1/2 (converted)
[18] = Volume of distribution at steady state in WH rat at 1 mg/kg, iv; format: ADME, organism-based; conditions: in vivo, read-out: Vdss
[19] = Drug recovery in bile duct cannulated single po dosed rhesus monkey assessed as recovered parent compound in feces relative to total recovery; format: ADME, organism-based, Macaca mulatta; conditions: in vivo
[20] = Terminal half life in DIO NFR-transgenic mouse plasma at 10 mg/kg, po once daily for 14 days; format: ADME, organism-based; conditions: time 14 day, read-out: beta t1/2 (converted)
[21] = Oral bioavailability in high fat diet fed dog at 1 mg/kg in 0.5% methocel; format: ADME, organism-based, Canis lupus familiaris; conditions: in vivo
[22] = Drug recovery in bile duct cannulated single iv dosed WH rat assessed as recovered parent compound in plasma measure at 24 hrs relative to total recovery; format: ADME, organism-based; conditions: in vivo
[23] = Half life in lean NFR-transgenic mouse liver at 10 mg/kg, po qd treated for 40 days; format: ADME, organism-based; conditions: time 40 day
[24] = Plasma clearance in rhesus monkey at 0.5 mg/kg, iv; format: ADME, organism-based, Macaca mulatta
[25] = Drug recovery in bile duct cannulated single po dosed WH rat assessed as recovered total urine radioactivity; format: ADME, organism-based; conditions: in vivo
[26] = Volume of distribution at steady state in Beagle dog at 0.5 mg/kg, iv; format: ADME, organism-based, Canis lupus familiaris; conditions: in vivo, read-out: Vdss
[27] = Terminal half life in CD1 mouse at 1 mg/kg, iv; format: ADME, organism-based; conditions: in vivo, read-out: beta t1/2 (converted)
[28] = Drug recovery in bile duct cannulated single po dosed rhesus monkey assessed as recovered total urine radioactivity; format: ADME, organism-based, Macaca mulatta; conditions: in vivo
[29] = Normalized AUC (0 to 72 hrs) in fasted dog at 1 mg/kg, po in Imwitor/Tween; format: ADME, organism-based, Canis lupus familiaris; conditions: in vivo
[30] = Half life in lean wild type mouse plasma at 10 mg/kg, po qd treated for 40 days; format: ADME, organism-based; conditions: time 40 day
[31] = Terminal half life in DIO NFR-transgenic mouse liver at 10 mg/kg, po once daily for 14 days; format: ADME, organism-based; conditions: time 14 day, read-out: beta t1/2 (converted)
[32] = Oral bioavailability in fasted dog at 1 mg/kg in Imwitor/Tween; format: ADME, organism-based, Canis lupus familiaris; conditions: in vivo
[33] = MRT in WH rat at 1 mg/kg, iv; format: ADME, organism-based; conditions: in vivo
[34] = Volume of distribution at steady state in CD1 mouse at 1 mg/kg, iv and 2 mg/kg, po; format: ADME, organism-based; conditions: in vivo, read-out: Vdss
[35] = Terminal half life in DIO NFR-transgenic mouse adipose tissue at 10 mg/kg, po once daily for 14 days; format: ADME, organism-based; conditions: time 14 day, read-out: beta t1/2 (converted)
[36] = Oral bioavailability in fasted dog at 1 mg/kg in 0.5% methocel; format: ADME, organism-based, Canis lupus familiaris; conditions: in vivo
[37] = MRT in Beagle dog at 0.5 mg/kg, iv; format: ADME, organism-based, Canis lupus familiaris; conditions: in vivo
[38] = Oral bioavailability in CD1 mouse at 2 mg/kg; format: ADME, organism-based; conditions: in vivo
[39] = Drug recovery in bile duct cannulated single po dosed rhesus monkey assessed as recovered parent compound in urine relative to total recovery; format: ADME, organism-based, Macaca mulatta; conditions: in vivo
[40] = Oral bioavailability in Beagle dog at 2 mg/kg; format: ADME, organism-based, Canis lupus familiaris; conditions: in vivo
[41] = Tmax in rhesus monkey at 2 mg/kg, po; format: ADME, organism-based, Macaca mulatta; conditions: in vivo
[42] = Cmax in CD1 mouse at 2 mg/kg, po; format: ADME, organism-based; design: route oral, dose 2 mg/kg; conditions: in vivo
[43] = Clearance in CD1 mouse at 1 mg/kg, iv and 2 mg/kg, po; format: ADME, organism-based; conditions: in vivo
[44] = Normalized AUC (0 to 72 hrs) in high fat diet fed dog at 1 mg/kg, po in 0.5% methocel; format: ADME, organism-based, Canis lupus familiaris; conditions: in vivo
[45] = AUC (0 to infinitive) in WH rat at 2 mg/kg, po; format: ADME, organism-based; design: route oral, time infinity, dose 2 mg/kg; conditions: in vivo
[46] = Half life in NFR-transgenic mouse plasma at 10 mg/kg, po single dose; format: ADME, organism-based
[47] = Terminal half life in WH rat at 1 mg/kg, iv; format: ADME, organism-based; conditions: in vivo, read-out: beta t1/2 (converted)
[48] = Half life in DIO wild type mouse plasma at 10 mg/kg, po qd treated for 40 days; format: ADME, organism-based; conditions: time 40 day
[49] = Drug recovery in bile duct cannulated single po dosed rhesus monkey assessed as recovered total feces radioactivity; format: ADME, organism-based, Macaca mulatta; conditions: in vivo
[50] = Drug recovery in bile duct cannulated single iv dosed WH rat assessed as recovered glucuronide conjugate in plasma measure at 2 hrs relative to total recovery; format: ADME, organism-based; conditions: in vivo
[51] = Half life in lean NFR-transgenic mouse plasma at 10 mg/kg, po qd treated for 40 days; format: ADME, organism-based; conditions: time 40 day
[52] = Cmax in rhesus monkey at 2 mg/kg, po; format: ADME, organism-based, Macaca mulatta; design: route oral, dose 2 mg/kg; conditions: in vivo
[53] = Drug recovery in bile duct cannulated single po dosed WH rat assessed as recovered taurine conjugate in bile relative to total recovery; format: ADME, organism-based; conditions: in vivo
[54] = Drug recovery in bile duct cannulated single po dosed rhesus monkey assessed as recovered taurine conjugate in bile relative to total recovery; format: ADME, organism-based, Macaca mulatta; conditions: in vivo
[55] = Drug recovery in bile duct cannulated single po dosed rhesus monkey assessed as recovered glucuronide conjugate in feces relative to total recovery; format: ADME, organism-based, Macaca mulatta; conditions: in vivo
[56] = Drug recovery in bile duct cannulated single po dosed rhesus monkey assessed as recovered parent compound in plasma measured at 24 hrs relative to total recovery; format: ADME, organism-based, Macaca mulatta; conditions: in vivo
[57] = Plasma clearance in Beagle dog at 0.5 mg/kg, iv; format: ADME, organism-based, Canis lupus familiaris
[58] = Half life in DIO wild type mouse liver at 10 mg/kg, po qd treated for 40 days; format: ADME, organism-based; conditions: time 40 day
[59] = Drug recovery in bile duct cannulated single po dosed rhesus monkey assessed as recovered total bile radioactivity; format: ADME, organism-based, Macaca mulatta; conditions: in vivo
[60] = Cmax in high fat diet fed dog at 1 mg/kg, po in 0.5% methocel; format: ADME, organism-based, Canis lupus familiaris; design: route oral, dose 1 mg/kg; conditions: in vivo

Tmax [1]: 1.7 h
half-life [2]: 0.8 h
AUC(0-inf) [3]: 13 µM·h
Cmax [4]: 690 nM
half-life [5]: 86.4 h
half-life [6]: 36 h
bioavailability [7]: 65%
Drug recovery [8]: > 98%
Drug recovery [9]: > 99%
half-life [10]: 50 h
AUC/dose [11]: 9.2 µM·h
bioavailability [12]: 8.4%
AUC/dose [13]: 6.5 µM·kg·h/mg
bioavailability [14]: 48%
MRT [15]: 6 h
Drug recovery [16]: > 96%
half-life [17]: 15 h
Vd [18]: 2.4 L/kg
Drug recovery [19]: 95%
half-life at […] [20]: 3.8 h
bioavailability [21]: 9%
Drug recovery [22]: > 99%
half-life [23]: 69.6 h
clearance [24]: 0.39 mL/min/kg
Drug recovery [25]: 0%
Vd [26]: 0.54 L/kg
half-life [27]: 4.4 h
Drug recovery [28]: 7%
AUC/dose [29]: 24 µM·kg·h/mg
half-life [30]: 0.8 h
half-life at […] [31]: 5.5 h
bioavailability [32]: 53%
MRT [33]: 13 h
Vd [34]: 0.95 L/kg
half-life at […] [35]: 2.8 h
bioavailability [36]: 14%
MRT [37]: 18 h
bioavailability [38]: 43%
Drug recovery [39]: > 99%
bioavailability [40]: 14%
Tmax [41]: 6.7 h
Cmax [42]: 430 nM
clearance [43]: 2.6 mL/min/kg
AUC/dose [44]: 4.2 µM·kg·h/mg
AUC(0-inf) [45]: 9.7 µM·h
half-life [46]: 12 h
half-life [47]: 8.1 h
half-life [48]: 67.2 h
Drug recovery [49]: 60%
Drug recovery [50]: < 4%
half-life [51]: 288 h
Cmax [52]: 220 nM
Drug recovery [53]: 0%
Drug recovery [54]: 3%
Drug recovery [55]: 5%
Drug recovery [56]: > 99%
clearance [57]: 0.52 mL/min/kg
half-life [58]: 76.8 h
Drug recovery [59]: > 99%
Cmax [60]: 300 nM
Structure (SMILES): COc1ncc(-c2ccc(C(=O)O)cc2C)cc1-c1ccc(C(F)(F)F)cc1[C@@H]1CC[C@H]2[C@@H](c3cc(C(F)(F)F)cc(C(F)(F)F)c3)OC(=O)N12
